Laboratory results reported in paper PMC7054748, “The identification and characterisation of autophagy inhibitors from the published kinase inhibitor sets” (Biochemical Journal, 2020).
Several values for one entry are separate records, joined by “and”; a condition that tells them apart may be missing. Equal values may be shown once.

What was measured:
VPS34 (WIPI2 puncta) = test: Cellular VPS34 activity: WIPI2 puncta immunofluorescence in U2OS cells; format: cell-based, human
Protocol: (§1) U2OS (human osteosarcoma-derived) cells were cultured in DMEM supplemented with 10% foetal bovine serum, 100 U/ml Penicillin and […] L-glutamine. Cells were pre-treated with compounds at the indicated concentrations for 60 min followed by treatments with EBSS or EBSS combined with/without 50 nM Bafilomycin A1 (Enzo Life Sciences) for a further 60 or 120 min with/without inhibitors, as indicated in figures/figure legends.
(§2) Prior to immunofluorescence, cells were grown on glass coverslips to ∼60% confluency. Cells were washed in PBS prior to fixation with 3.7% PFA/10 mM HEPES pH 7.0 at room temperature for 20 min. PFA was quenched using DMEM/10 mM HEPES pH 7.0/0.02% NaN3, followed by permeabilisation with 0.2% NP-40 in PBS for 5 min, followed by blocking with 1% BSA/PBS/0.02% NaN3. Primary antibody incubation was at room temperature for 60 min, followed by two 10-minute washes, then fluorescent secondary antibody incubation for 30 min and further washes (all in blocking buffer) before mounting onto glass slides. A wide field Nikon TS microscope was used for image capturing.
(§3) Quantification of western blots was performed with band densitometry analysis using ImageJ. Quantification of LC3 puncta was performed using either the ITCN plugging in ImageJ or Volocity. One-way or two-way Anova (using GraphPad Prism) followed by a post-hoc test, was used for statistical analysis of western blots and immunofluorescence as indicated in figure legends.

ULK1 = target: T1, ULK1 (Homo sapiens, UniProt O75385); test: ULK1 ADP Hunter Plus kinase activity assay; format: biochemical; details: resynthesized samples; mean potency in parenthesis, n = 5; read-out: IC50 against ULK1 (converted)
T1 construct: purchased MRC PPU Reagents and Services, Dundee, Scotland
T1 sequence (O75385 1-1050): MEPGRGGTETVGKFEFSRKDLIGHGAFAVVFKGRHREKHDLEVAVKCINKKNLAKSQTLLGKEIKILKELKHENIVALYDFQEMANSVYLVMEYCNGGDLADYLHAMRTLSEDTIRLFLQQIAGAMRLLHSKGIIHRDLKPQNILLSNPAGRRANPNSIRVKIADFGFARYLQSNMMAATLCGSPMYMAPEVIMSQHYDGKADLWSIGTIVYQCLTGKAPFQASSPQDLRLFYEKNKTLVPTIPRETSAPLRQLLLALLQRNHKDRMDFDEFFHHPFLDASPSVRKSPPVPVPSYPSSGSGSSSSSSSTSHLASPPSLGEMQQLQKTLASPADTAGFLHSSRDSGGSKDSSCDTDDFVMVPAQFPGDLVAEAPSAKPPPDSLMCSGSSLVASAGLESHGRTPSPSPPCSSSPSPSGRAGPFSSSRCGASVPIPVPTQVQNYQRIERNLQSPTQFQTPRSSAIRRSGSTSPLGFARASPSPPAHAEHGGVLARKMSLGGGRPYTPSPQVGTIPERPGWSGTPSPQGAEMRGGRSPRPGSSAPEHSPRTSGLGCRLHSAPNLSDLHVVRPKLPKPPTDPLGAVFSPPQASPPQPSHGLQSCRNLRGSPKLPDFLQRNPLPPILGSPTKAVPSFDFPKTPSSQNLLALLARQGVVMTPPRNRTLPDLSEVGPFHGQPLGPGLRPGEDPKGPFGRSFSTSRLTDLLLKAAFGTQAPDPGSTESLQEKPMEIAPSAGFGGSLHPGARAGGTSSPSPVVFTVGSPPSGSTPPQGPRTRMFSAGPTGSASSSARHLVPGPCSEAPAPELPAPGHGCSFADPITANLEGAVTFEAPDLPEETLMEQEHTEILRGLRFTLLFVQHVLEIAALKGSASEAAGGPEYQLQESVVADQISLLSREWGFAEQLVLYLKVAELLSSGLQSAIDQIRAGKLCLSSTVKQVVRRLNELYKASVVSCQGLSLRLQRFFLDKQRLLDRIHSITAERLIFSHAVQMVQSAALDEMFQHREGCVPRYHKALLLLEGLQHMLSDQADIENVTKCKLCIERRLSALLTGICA

AMPK α1β2ɣ1 = AMPK α1β2ɣ1 (Homo sapiens, UniProt O43741+P54619+Q13131); test: AMPK ADP Hunter Plus kinase activity assay
AMPK α1β2ɣ1, sequence (Q13131 whole entry): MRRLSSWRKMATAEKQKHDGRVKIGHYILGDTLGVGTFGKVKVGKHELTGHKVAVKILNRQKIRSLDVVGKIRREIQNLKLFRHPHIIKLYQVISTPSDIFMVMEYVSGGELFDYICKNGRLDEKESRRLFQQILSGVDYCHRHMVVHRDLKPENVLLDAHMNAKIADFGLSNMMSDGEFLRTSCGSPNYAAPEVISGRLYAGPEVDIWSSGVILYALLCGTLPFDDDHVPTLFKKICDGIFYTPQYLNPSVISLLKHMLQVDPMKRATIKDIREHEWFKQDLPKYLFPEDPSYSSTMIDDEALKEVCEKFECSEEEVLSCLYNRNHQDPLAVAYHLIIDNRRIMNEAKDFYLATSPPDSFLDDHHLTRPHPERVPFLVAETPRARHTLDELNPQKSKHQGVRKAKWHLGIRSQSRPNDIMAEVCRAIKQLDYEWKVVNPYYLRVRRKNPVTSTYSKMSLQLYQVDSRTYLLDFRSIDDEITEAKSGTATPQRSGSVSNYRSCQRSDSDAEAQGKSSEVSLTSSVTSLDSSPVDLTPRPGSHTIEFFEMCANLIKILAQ
AMPK α1β2ɣ1, sequence (O43741 whole entry partner): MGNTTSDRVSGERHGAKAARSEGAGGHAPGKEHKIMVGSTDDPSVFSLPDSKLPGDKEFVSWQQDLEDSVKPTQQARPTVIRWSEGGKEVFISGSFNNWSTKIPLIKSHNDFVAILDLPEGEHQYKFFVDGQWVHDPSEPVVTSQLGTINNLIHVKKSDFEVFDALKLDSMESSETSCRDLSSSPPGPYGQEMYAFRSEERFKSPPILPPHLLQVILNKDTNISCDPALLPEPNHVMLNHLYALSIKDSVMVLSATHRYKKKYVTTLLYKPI
AMPK α1β2ɣ1, sequence (P54619 whole entry partner): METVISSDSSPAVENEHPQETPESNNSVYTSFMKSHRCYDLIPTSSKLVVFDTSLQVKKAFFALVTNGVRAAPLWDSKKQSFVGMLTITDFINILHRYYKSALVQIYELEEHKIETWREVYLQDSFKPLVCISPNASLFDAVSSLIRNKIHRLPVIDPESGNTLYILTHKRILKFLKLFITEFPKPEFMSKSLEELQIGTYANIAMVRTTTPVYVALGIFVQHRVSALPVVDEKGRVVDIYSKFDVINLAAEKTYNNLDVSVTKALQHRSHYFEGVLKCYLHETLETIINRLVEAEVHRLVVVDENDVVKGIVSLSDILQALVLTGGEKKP

VPS34 = VPS34 (Homo sapiens, UniProt Q8NEB9); test: VPS34 ADP Hunter Plus kinase activity assay; details: for Mechanism of inhibition of VPS34 with respect to ATP: varying ATP below 200 µM, Michaelis–Menten and Lineweaver–Burk plots; for Mechanism of inhibition of VPS34 with respect to PI:PS: varying PI:PS below 12 µM
VPS34, sequence (Q8NEB9 whole entry): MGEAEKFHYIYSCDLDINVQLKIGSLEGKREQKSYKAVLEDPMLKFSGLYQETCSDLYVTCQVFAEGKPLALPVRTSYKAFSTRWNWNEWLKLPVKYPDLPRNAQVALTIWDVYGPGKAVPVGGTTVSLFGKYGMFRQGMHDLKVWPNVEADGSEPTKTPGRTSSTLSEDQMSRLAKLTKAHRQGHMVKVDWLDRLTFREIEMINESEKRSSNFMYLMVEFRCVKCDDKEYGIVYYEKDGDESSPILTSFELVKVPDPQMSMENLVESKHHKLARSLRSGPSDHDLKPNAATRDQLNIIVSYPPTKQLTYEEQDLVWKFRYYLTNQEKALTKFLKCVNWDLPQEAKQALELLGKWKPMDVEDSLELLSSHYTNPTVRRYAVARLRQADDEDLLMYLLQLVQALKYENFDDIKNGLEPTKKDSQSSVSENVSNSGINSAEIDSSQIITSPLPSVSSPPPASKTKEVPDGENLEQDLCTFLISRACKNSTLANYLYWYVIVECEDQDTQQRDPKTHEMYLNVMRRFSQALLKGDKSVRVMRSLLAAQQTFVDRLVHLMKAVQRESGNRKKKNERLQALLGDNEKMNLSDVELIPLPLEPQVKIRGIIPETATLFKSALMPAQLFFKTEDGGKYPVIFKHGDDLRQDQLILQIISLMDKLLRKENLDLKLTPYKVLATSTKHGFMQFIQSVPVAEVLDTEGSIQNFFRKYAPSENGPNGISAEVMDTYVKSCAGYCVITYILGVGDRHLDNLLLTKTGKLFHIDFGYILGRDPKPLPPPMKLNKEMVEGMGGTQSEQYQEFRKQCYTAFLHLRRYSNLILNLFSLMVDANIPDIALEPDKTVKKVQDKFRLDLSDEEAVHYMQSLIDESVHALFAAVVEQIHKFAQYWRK

LC3 flux in U2OS cells = test: Autophagic flux: LC3-II western blot with/without BafA1 in U2OS cells; format: cell-based, human; details: for Effect on starvation-induced LC3 flux: 5 µM, 60 min pre-treatment then 60 min EBSS ± 50 nM BafA1, U2OS
Protocol: as §1
(§4) Prior to western blot analysis, cells were washed twice in ice-cold PBS and lysed in buffer containing 50 mM HEPES pH 7.4, 150 mM NaCl, 1 mM EDTA, 10% Glycerol, 0.5% NP-40, 1 mM DTT, supplemented with phosphatase inhibitors (1.15 mM sodium molybdate, 4 mM sodium tartrate, 0.01 M β-glycerophosphate, 1 mM sodium fluoride, 1 mM sodium orthovanadate) and protease inhibitor tablets (Roche) according to manufacturer's instructions. Lysates were then spun at 20 000×g for 10 min and the supernatant was collected for protein content estimation using Protein Assay Dye Reagent Concentrate from Bio-Rad. 4× LDS was added to the lysate (final dilution 1×) prior to heating at 95°C for 5 min. Electrophoresis and transfer to PVDF membranes was performed using standard protocols. Membranes were blocked in 5% milk in TBS-T prior to incubation with primary antibodies (in 5% milk/TBS-T for ULK1, pS555 (human S556) ULK1, pS757 (human S758) ULK1, pS318-ATG13, ATG13, and in 5% BSA/TBS-T for LC3 and α-Tubulin) under rotation overnight at 4°C followed by washes in TBS-T and incubation with HRP-conjugated secondary antibodies (in 5% milk in TBS-T) for 60 min at room temperature. Membranes were washed in TBS-T before application of ECL reagent (GE healthcare) and development on hypersensitive X-ray films (GE healthcare) (Figures 5A, 6C and Supplementary Figure S7C) or using BIO-RAD Clarity^TM western blotting substrate (Supplementary Figure S6C and Supplementary Figure S7A) and a BIO-RAD ChemiDoc^TM imaging system.
as §3

ULK1 (pS318 ATG13) = test: Cellular ULK1 kinase activity: pS318 ATG13 western blot in U2OS cells; format: cell-based, human; details: 5 µM, 60 min pre-treatment then 60 min EBSS, U2OS
Protocol: as §1
as §4, with “Lysates” for “Prior to western blot analysis, cells were washed twice in ice-cold PBS and lysed in buffer containing 50 mM HEPES pH 7.4, 150 mM NaCl, 1 mM EDTA, 10% Glycerol, 0.5% NP-40, 1 mM DTT, supplemented with phosphatase inhibitors (1.15 mM sodium molybdate, 4 mM sodium tartrate, 0.01 M β-glycerophosphate, 1 mM sodium fluoride, 1 mM sodium orthovanadate) and protease inhibitor tablets (Roche) according to manufacturer's instructions. Lysates”
as §3

LC3 puncta in U2OS cells = test: Endogenous LC3 puncta immunofluorescence in U2OS cells; format: cell-based, human
Protocol: as §1, §2, §3

mTOR (ULK1 pS758) = test: Upstream mTOR activity: ULK1 pS758 western blot in U2OS cells; format: cell-based, human; details: 100 nM (VPS34-IN1 500 nM), 60 min pre-treatment, ± EBSS 60 min
Protocol: as §1
as §4, with “Lysates” for “Prior to western blot analysis, cells were washed twice in ice-cold PBS and lysed in buffer containing 50 mM HEPES pH 7.4, 150 mM NaCl, 1 mM EDTA, 10% Glycerol, 0.5% NP-40, 1 mM DTT, supplemented with phosphatase inhibitors (1.15 mM sodium molybdate, 4 mM sodium tartrate, 0.01 M β-glycerophosphate, 1 mM sodium fluoride, 1 mM sodium orthovanadate) and protease inhibitor tablets (Roche) according to manufacturer's instructions. Lysates”
as §3

AMPK (ULK1 pS556) = test: Upstream AMPK activity: ULK1 pS556 western blot in U2OS cells; format: cell-based, human; details: 100 nM (VPS34-IN1 500 nM), 60 min pre-treatment, ± EBSS 60 min
Protocol: as §1
as §4, with “Lysates” for “Prior to western blot analysis, cells were washed twice in ice-cold PBS and lysed in buffer containing 50 mM HEPES pH 7.4, 150 mM NaCl, 1 mM EDTA, 10% Glycerol, 0.5% NP-40, 1 mM DTT, supplemented with phosphatase inhibitors (1.15 mM sodium molybdate, 4 mM sodium tartrate, 0.01 M β-glycerophosphate, 1 mM sodium fluoride, 1 mM sodium orthovanadate) and protease inhibitor tablets (Roche) according to manufacturer's instructions. Lysates”
as §3

[1] = IC50 against VPS34, resynthesized samples, mean potency in parenthesis, n = 5
[2] = pIC50 against VPS34, original PKIS samples, concentration-dependent retest of screen hits

Row | IC50 (ULK1) | IC50 (AMPK α1β2ɣ1) | IC50 (VPS34; IC50 against VPS34, resynthesized sample) | IC50 (VPS34; [1]) | IC50 (VPS34; [2]) | Mechanism of inhibition of VPS34 with respect to ATP (VPS34) | Mechanism of inhibition of VPS34 with respect to PI:PS (VPS34) | IC50 (VPS34; pIC50 against VPS34, resynthesized samples, 50 µM ATP (KM app), mean ± SD, n = 5) | SMILES | Concentration with inhibitory effect on WIPI2 puncta formation (VPS34 (WIPI2 puncta); EBSS, not at lower concentrations) | Effect on starvation-induced LC3 flux (LC3 flux in U2OS cells) | Effect on starvation-induced increase in pS318 ATG13 (ULK1 (pS318 ATG13)) | Enlarged/stalled LC3 puncta (autophagosomes) phenotype (LC3 puncta in U2OS cells; 2 µM MRT68921, 5 µM others, 60 min pre-treatment then 120 min EBSS) | Effect on EBSS-induced increase in LC3 puncta formation (LC3 puncta in U2OS cells; 5 µM, EBSS) | Effect on mTORC1 activity (pS758 ULK1) (mTOR (ULK1 pS758)) | Effect on LC3 flux under EBSS starvation (LC3 flux in U2OS cells; 100 nM, 60 min pre-treatment then 60 min EBSS, U2OS) | Effect on EBSS-induced WIPI2 puncta (VPS34 (WIPI2 puncta); 100 nM, 60 min pre-treatment then 60 min EBSS, vs EBSS only) | Concentration working in cells (WIPI2 puncta reduction) (VPS34 (WIPI2 puncta); EBSS, as low as) | Effect on AMPK activity (pS556 ULK1) (AMPK (ULK1 pS556))
1 | 603 nM | 2510 nM | 1200 nM | 1200 nM | < 1000 nM | primarily ATP competitive inhibition | clear non-competitive inhibition |  | O=S(=O)(c1ccc(-c2ccnc3[nH]ccc23)cc1)N1CCCC1 [GSK846226A] | 5 µM |  |  |  |  |  |  |  |  | 
2 |  | 347 nM |  |  |  |  |  | 26300 nM | CC(C)(CO)CNC(=O)c1ccc2c(c1)/C(=N/Nc1ccc(S(N)(=O)=O)cc1)C(=O)N2 [GW301784X] |  | did not block LC3 flux | did not have a significant effect |  |  |  |  |  |  | 
3 |  |  |  | 457 nM |  |  |  |  | O=C1Nc2ccc(C(=O)c3ccco3)cc2C1=Cc1cc(Cl)c(O)c(Cl)c1 [GW406108X] |  | significantly blocked | significantly reduced | did not show this phenotype | abolished |  |  |  |  | 
4 | 8710 nM | 3160 nM |  | 90.5 nM and 91 nM | < 1000 nM | primarily ATP competitive inhibition | clear non-competitive inhibition |  | O=C1Nc2ccc(-c3cccnc3)cc2C1=Cc1cc(Br)c(O)c(Br)c1 [GW429374A] |  |  |  |  |  | unaffected | significantly reduced LC3 flux | significantly reduced | ≤ 100 nM | unaffected
